{"source": "patent EP0260606A2", "about": "“Medicament for curing neurotic disturbance or disorder comprising sialocylglycerolipid” (MECT CORPORATION, priority 1986, dated 1988)", "key": {"[1]": {"system": "Mice Having Their Nerves Damaged by Mercurialism", "test": "T-shaped labyrinth learning and memory in mice damaged by methylmercuric chloride", "type": "in vivo", "settings": "for number of mice that reached the standard / number of mice subjected to test: 40 mg/kg,i.p./day for 10 days after MMC 6 mg/kg/day; for average time required for running into the safety area: 40 mg/kg,i.p./day after MMC, average ± S.D.", "method": "Male Balb/c mice of 7-weeks age were pre-trained in a T-shaped labylinth 3 times a week so that they learned to go straight from the starting area to the safety area. Then, a group of mice was orally administered methylmercuric chloride (hereinafter referred to as MMC) at a dose of 6 mg/kg/day for 7 days after the mice had reached 8-weeks age. A control group of mice was administered 0.l ml/l0 g/day of saline. The day after the completion of administration of MMC, the compound (I) of the invention was intraperitoneally administered at a dose of 40 mg/kg/day for l0 days. From the 23rd day, the training in the T-shape labylinth was restarted, and the running actions of the mice were observed. At the 7th day (29th day from the beginning of the experiment) and 8th day (30th day from the beginning of the experiment) from the re-starting of the training, the number of mice of each group, that could be subjected to test, was counted; and the number of mice that reached the standard (running into the safety area within 5 seconds) for 8 or more times per ten times trials was counted. In the following Table 6, the number of mice subjected to test is shown as the denominator, and the number of mice that reached the standard is shown as the numerator. Meanwhile, the decrease in number of mice was caused by death due to poisoning from MMC. Also shown in Table 6 are the average times (second) ± S.D. […] required for running into the safety area."}, "[2]": {"system": "neuroblastoma cell Neuro2a", "test": "Effect on the neuroblastoma cell Neuro2a (formation and growth of axis-cylinder process)", "type": "cell-based", "settings": "for Length of Axis-cylinder Process / Number of Axis-cylinder Process: average ± S.E.", "method": "The nervous cell used in the test was neuroblastoma cell Neuro2a which is readily available and can be cultured in a relatively simple manner.\nNeuro2a was floated on a culture medium containing fetal cattle serum (hereinafter referred to as FCS), the culture medium consisting of 90% of Dubecco's Modified Eagle's Medium (hereinafter referred to as MEM) and l0% of FCS and added with l00 U/ml of penicillin G and l00 µg/ml of streptomycin sulfate, and cultured in a carbon dioxide cultivator at 37°C in an air containing 5% of carbon dioxide. The containers used were 60 mm polystyrene dishes, and each of the containers was incubated with l to 2 × l0⁴ cells followed by culturing for 48 hours prior to the test. […] After the lapse of 24 hours and 48 hours, the increase in cells formed with axis-cylinder process, the increase in number of axis-cylinder processes and the elongation of the length of the axis-cylinder process were measured.\nThe test was conducted while using three dishes for each concentration of each test material."}, "[3]": {"settings": "in consideration of the molecular weights, 48 hour cultivation"}}, "note": "Entries after “also recorded” stand apart in the source; their conditions may differ.", "data": [{"smiles": "CCCCCCCCCCCCCCOCC(COC1(C(=O)O)CC(O)C(NC(C)=O)C(C(O)C(O)CO)O1)OCCCCCCCCCCCCCC", "note": "(centres unmarked) [Compound (I)]", "values": [{"measurement": "number of mice that reached the standard / number of mice subjected to test", "setting": "[1]; 7th Day of re-started training, standard: safety area within 5 seconds in 8 or more of ten trials", "value": "4/6"}, {"measurement": "average time required for running into the safety area", "setting": "[1]; 7th Day", "value": "2.5 ± 0.8", "unit": "s"}, {"measurement": "number of mice that reached the standard / number of mice subjected to test", "setting": "[1]; 8th Day of re-started training", "value": "5/6"}, {"measurement": "average time required for running into the safety area", "setting": "[1]; 8th Day", "value": "3.1 ± 0.7", "unit": "s"}, {"measurement": "remedy and restoration of learning and memory ability", "setting": "[1]; result in words", "value": "had the effect of remedying and restoring the learning and memory ability"}, {"measurement": "Number of Cells Formed with Axis-cylinder Process", "setting": "[2]; 24 hours, 0.01 µg/ml", "value": 184}, {"measurement": "Ratio of Cells Formed with Axis-cylinder Process", "setting": "[2]; 24 hours, 0.01 µg/ml", "value": 44.7, "unit": "%"}, {"measurement": "Total Number of Cells", "setting": "[2]; 24 hours, 0.01 µg/ml", "value": 412}, {"measurement": "Length of Axis-cylinder Process", "setting": "[2]; 24 hours, 0.01 µg/ml", "value": "107.5 ± 4.56", "unit": "µm/cell"}, {"measurement": "Number of Axis-cylinder Process", "setting": "[2]; 24 hours, 0.01 µg/ml", "value": "1.2 ± 0.03", "unit": "per cell"}, {"measurement": "Number of Cells Formed with Axis-cylinder Process", "setting": "[2]; 24 hours, 0.1 µg/ml", "value": 188}, {"measurement": "Ratio of Cells Formed with Axis-cylinder Process", "setting": "[2]; 24 hours, 0.1 µg/ml", "value": 50.9, "unit": "%"}, {"measurement": "Total Number of Cells", "setting": "[2]; 24 hours, 0.1 µg/ml", "value": 369}, {"measurement": "Length of Axis-cylinder Process", "setting": "[2]; 24 hours, 0.1 µg/ml", "value": "111.4 ± 4.60", "unit": "µm/cell"}, {"measurement": "Number of Axis-cylinder Process", "setting": "[2]; 24 hours, 0.1 µg/ml", "value": "1.2 ± 0.03", "unit": "per cell"}, {"measurement": "Number of Cells Formed with Axis-cylinder Process", "setting": "[2]; 24 hours, 1 µg/ml", "value": 214}, {"measurement": "Ratio of Cells Formed with Axis-cylinder Process", "setting": "[2]; 24 hours, 1 µg/ml", "value": 63.5, "unit": "%"}, {"measurement": "Total Number of Cells", "setting": "[2]; 24 hours, 1 µg/ml", "value": 337}, {"measurement": "Length of Axis-cylinder Process", "setting": "[2]; 24 hours, 1 µg/ml", "value": "158.7 ± 6.94", "unit": "µm/cell"}, {"measurement": "Number of Axis-cylinder Process", "setting": "[2]; 24 hours, 1 µg/ml", "value": "1.0 ± 0.02", "unit": "per cell"}, {"measurement": "Number of Cells Formed with Axis-cylinder Process", "setting": "[2]; 24 hours, 10 µg/ml", "value": "U.C."}, {"measurement": "Total Number of Cells", "setting": "[2]; 24 hours, 10 µg/ml", "value": "U.C."}, {"measurement": "Length of Axis-cylinder Process", "setting": "[2]; 24 hours, 10 µg/ml", "value": "U.C."}, {"measurement": "Number of Axis-cylinder Process", "setting": "[2]; 24 hours, 10 µg/ml", "value": "U.C."}, {"measurement": "Number of Cells Formed with Axis-cylinder Process", "setting": "[2]; 48 hours, 0.01 µg/ml", "value": 249}, {"measurement": "Ratio of Cells Formed with Axis-cylinder Process", "setting": "[2]; 48 hours, 0.01 µg/ml", "value": 50.7, "unit": "%"}, {"measurement": "Total Number of Cells", "setting": "[2]; 48 hours, 0.01 µg/ml", "value": 491}, {"measurement": "Length of Axis-cylinder Process", "setting": "[2]; 48 hours, 0.01 µg/ml", "value": "117.1 ± 4.94", "unit": "µm/cell"}, {"measurement": "Number of Axis-cylinder Process", "setting": "[2]; 48 hours, 0.01 µg/ml", "value": "1.2 ± 0.03", "unit": "per cell"}, {"measurement": "Number of Cells Formed with Axis-cylinder Process", "setting": "[2]; 48 hours, 0.1 µg/ml", "value": 258}, {"measurement": "Ratio of Cells Formed with Axis-cylinder Process", "setting": "[2]; 48 hours, 0.1 µg/ml", "value": 55.6, "unit": "%"}, {"measurement": "Total Number of Cells", "setting": "[2]; 48 hours, 0.1 µg/ml", "value": 464}, {"measurement": "Length of Axis-cylinder Process", "setting": "[2]; 48 hours, 0.1 µg/ml", "value": "128.8 ± 5.71", "unit": "µm/cell"}, {"measurement": "Number of Axis-cylinder Process", "setting": "[2]; 48 hours, 0.1 µg/ml", "value": "1.2 ± 0.03", "unit": "per cell"}, {"measurement": "Number of Cells Formed with Axis-cylinder Process", "setting": "[2]; 48 hours, 1 µg/ml", "value": 248}, {"measurement": "Ratio of Cells Formed with Axis-cylinder Process", "setting": "[2]; 48 hours, 1 µg/ml", "value": 61.4, "unit": "%"}, {"measurement": "Total Number of Cells", "setting": "[2]; 48 hours, 1 µg/ml", "value": 404}, {"measurement": "Length of Axis-cylinder Process", "setting": "[2]; 48 hours, 1 µg/ml", "value": "154.7 ± 5.99", "unit": "µm/cell"}, {"measurement": "Number of Axis-cylinder Process", "setting": "[2]; 48 hours, 1 µg/ml", "value": "1.1 ± 0.03", "unit": "per cell"}, {"measurement": "Number of Cells Formed with Axis-cylinder Process", "setting": "[2]; 48 hours, 10 µg/ml", "value": "U.C."}, {"measurement": "Total Number of Cells", "setting": "[2]; 48 hours, 10 µg/ml", "value": "U.C."}, {"measurement": "Length of Axis-cylinder Process", "setting": "[2]; 48 hours, 10 µg/ml", "value": "U.C."}, {"measurement": "Number of Axis-cylinder Process", "setting": "[2]; 48 hours, 10 µg/ml", "value": 1, "unit": "U.C."}, {"measurement": "minimal effective concentration", "setting": "[2]; Mus musculus, N2a, 48 hour cultivation", "value": 0.01, "unit": "µg/mL"}, {"measurement": "activity relative to GM₁", "setting": "[2]; [3]", "value": 500, "unit": "times"}, {"measurement": "activity relative to GQ1b", "setting": "[2]; [3]", "value": 300, "unit": "times"}, {"measurement": "effect on growth of the axis-cylinder process", "setting": "[2]; result in words, compared with the control group", "value": "significant effect of promoting the growth of the axis-cylinder process; also recorded: extremely high activity for promoting growth or elongation of axis-cylinder process"}]}]}
